Test results taken from US20190375778A1, “ADENOSINE DERIVATIVES FOR USE IN THE TREATMENT OF CANCER” (NuCana plc, priority 2016, published 2019).
Like-named read-outs stand apart in the source and are kept apart here.

Experiments:
Murine leukemia L1210 = experiment: Cell proliferation (Coulter count) assay, L1210; assay type: cell-based; conditions: Mus musculus, 48 h, read-out: absolute IC50, L1210
In short: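 Cells grown in DMEM with 10% FBS. HeLa seeded at 10 000 cells/well, compound added after 24 h, counted day 5; L1210 and CEM seeded at 60 000 cells/well with compound, counted after 48 h and 72 h respectively. IC50 is concentration halving proliferation by Coulter count.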

RPMI-8226 = experiment: CellTiterGlo viability assay, RPMI-8226; assay type: cell-based, Human; conditions: for IC50: read-out: IC50 RPMI-8226
In short: (§1)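 Luminescent ATP-based readout (CellTiterGlo) followed a 72-hour incubation at 37 °C with compound. Final DMSO was 0.5%, and the dilution series ran from 198 μM to 19.9 nM over nine points.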

MCF7 = experiment: CellTiterGlo viability assay, MCF7; assay type: cell-based; conditions: for IC50: read-out: IC50 MCF7
Procedure: (§2) In vitro viability assay were performed to assess the effects of compounds on cell viability in selected cell lines over ˜72 hrs using the CellTiterGlo (CTG, Promega-G7573) assay. The tests were performed in duplicates with treatment of compounds at 9 points, 3.16 folds titration in 96 well plates over ˜72 hrs. The compound starting concentrations were 198 μM. Cell viability assay using CellTiterGlo in 96-well plate were performed. Compound treatment 72 hrs, standard growth conditions, duplicates. Compounds were dissolved to 40 mM with thawed […]. Compounds were serially diluted at 3.16 fold in thawed DMSO, and warmed to 37° C. before being dissolved in media (2 μl+200 μl). After compounds were dissolved in media, media containing compounds were warmed to 37° C. in incubator and then compounds in media were added to cell plates (50 μl+50 μl) in duplicates. The compounds' final concentrations were from […] to 19.9 nM. All compound solubilities were checked and recorded again, then the plates were transferred to CO2 tissue culture incubator immediately and incubated for 3 days. DMSO final concentration is 0.5%.

HS445 = experiment: CellTiterGlo viability assay, HS445; assay type: cell-based; conditions: for IC50: read-out: IC50 HS445
Procedure: as §2

[1] = tested on: KG1a leukaemic stem cell compartment (Lin−/CD34+/CD38−/CD123+); experiment: Leukaemic stem cell compartment in KG1a; assay type: cell-based; conditions: for KG-1a (CD34+/CD38−/CD123+) % compartment: LSC as percentage of viable cells left, 72 hrs; for targeting of leukaemic/cancer stem cells in words: KG1a, compared to 8-chloroadenosine (FIG. 2, FIG. 8); for Change relative to control (%): % LSC compartment versus the series' control
Procedure: A further comparative analysis of the toxicity of compounds in the KG1a cell line over an extended dose range was carried out, and the relative effect assessed of the compounds on the leukaemic stem cell compartment within the KG1a cell line, across the entire dose range. Thus, experimental tests were performed on certain compounds of the present invention to assess their ability to target cancer stem cells in a leukaemic cell line. The acute myeloid leukaemia (AML) cell line, KG1a, was employed to assess the relative effect of compounds on the stem cell compartment. The KG1a cell line was selected because it manifests a minor stem cell-like compartment with a distinct immunophenotype (Lin^−/CD34^+/CD38^−/CD123^+).
Cells of the KG1a cell line were maintained in RPMI medium (Invitrogen, Paisley, UK) supplemented with 100 units/ml penicillin, 100 μg/ml streptomycin and 20% foetal calf serum. Cells were subsequently aliquoted (10^5 cells/100 μl) into 96-well plates and were incubated at 37° C. in a humidified 5% carbon dioxide atmosphere for 72 hrs in the presence of nucleoside analogues and their respective nucleotide analogues (known as ProTides) at concentrations that were experimentally determined for each series of compounds. In addition, control cultures were carried out to which no drug was added. Cells were subsequently harvested by centrifugation and were analyzed by flow cytometry using the Annexin V assay.
KG1a cells were cultured for 72 hrs in the presence of a wide range of concentrations of each compound assayed. Cells were then harvested and labelled with a cocktail of anti-lineage antibodies (PE-cy7), anti-CD34 (FITC), anti-CD38 (PE) and anti-CD123 (PERCP cy5). The sub-population expressing a leukaemic stem cell (LSC) phenotype were subsequently identified and were expressed as a percentage of all viable cells left in the culture. The percentages of stem cells remaining were then plotted on a dose-response graph and the effects of the compounds were compared with 8-chloroadenosine.
The data obtained in these experiments were evaluated using one way ANOVA. All data was confirmed as Gaussian or a Gaussian approximation using the omnibus K2 test. LD50 values were calculated from the non-linear regression and line of best-fit analysis of the sigmoidal dose-response curves. All statistical analyses were performed using Graphpad Prism 6.0 software (Graphpad Software Inc., San Diego, Calif.).

HEL92.1.7 = experiment: CellTiterGlo viability assay, HEL92.1.7; assay type: cell-based; conditions: for IC50: read-out: IC50 HEL92.1.7
In short: as §1

HepG2 = experiment: CellTiterGlo viability assay, HepG2; assay type: cell-based; conditions: for IC50: read-out: IC50 HepG2
Procedure: as §2

[2] = Homo sapiens, RPMI-8226, CellTiterGlo, 72 hrs
[3] = Homo sapiens, MCF7, CellTiterGlo, 72 hrs
[4] = Homo sapiens, HEL 92.1.7, CellTiterGlo, 72 hrs
[5] = Homo sapiens, HepG2, CellTiterGlo, 72 hrs

Row | SMILES | IC50 (Murine leukemia L1210) [µM] | IC50 (RPMI-8226; Homo sapiens, RPMI-8226, 72 h) [µM] | IC50 (MCF7; Homo sapiens, MCF7, 72 h) [µM] | IC50 (HS445; Hs 445, 72 h) [µM] | KG-1a (CD34+/CD38−/CD123+) % compartment [1] [%] | IC50 (HEL92.1.7; Homo sapiens, HEL 92.1.7, 72 h) [µM] | IC50 (HepG2; Homo sapiens, HepG2, 72 h) [µM] | also measured
1 | C[C@H](NP(=O)(OC[C@H]1O[C@@H](n2c(Cl)nc3c(N)ncnc32)[C@H](O)[C@@H]1O)Oc1ccccc1)C(=O)OCc1ccccc1 (mixture of isomers) [C, (2S)-Benzyl 2-(((((2R,3S,4R,5R)-5-(6-amino-8-chloro-9H-purin-9-yl)-3,4-dihydroxy-tetrahydrofuran-2-yl)methoxy)(phenoxy)phosphoryl)amino)propanoate] | 15 to 100 | 5 to 15 | 15 to 100 | > 100 | 3.3 | 15 to 100 | 15 to 100 | 
2 | Nc1ncnc2c1nc(Cl)n2[C@@H]1O[C@H](COP(=O)(NCC(=O)OC2CCCCC2)Oc2ccccc2)[C@@H](O)[C@H]1O (mixture of isomers) [Compound A, Cyclohexyl 2-(((((2R,3S,4R,5R)-5-(6-amino-8-chloro-9H-purin-9-yl)-3,4-dihydroxy-tetrahydrofuran-2-yl)methoxy)(phenoxy)phosphoryl)amino)acetate] | 15 to 100 | 5 to 15 | 15 to 100 | > 100 |  | 5 to 15 | 5 to 15 | 
3 | Nc1ncnc2c1nc(Cl)n2[C@@H]1O[C@H](COP(=O)(NCC(=O)OCc2ccccc2)Oc2ccccc2)[C@@H](O)[C@H]1O (mixture of isomers) [Compound B, Benzyl 2-(((((2R,3S,4R,5R)-5-(6-amino-8-chloro-9H-purin-9-yl)-3,4-dihydroxytetra-hydrofuran-2-yl)methoxy)(phenoxy)phosphoryl)amino)acetate] | 5 to 15 | 0.1 to 5 | 0.1 to 5 | 5 to 15 | 2.7 | 0.1 to 5 | 0.1 to 5 | targeting of leukaemic/cancer stem cells in words [1]: particularly effective preferential targeting of LSCs
4 | Nc1ncnc2c1nc(Cl)n2[C@@H]1O[C@H](CO)[C@@H](O)[C@H]1O [8-chloroadenosine, 8-Chloroadenosine, reference compound] | 0.1 to 5 |  |  |  | 3.7 |  |  | Top in. % RPMI-8226 (RPMI-8226): 96.2%; IC50 (RPMI-8226; [2]): 0.1 to 5 µM; EC50 (RPMI-8226; Homo sapiens, RPMI-8226, read-out: Ab EC50 (μM) RPMI-8226): 1.34 µM; Top in. % MCF7 (MCF7): 79.6%; IC50 (MCF7; [3]): 0.1 to 5 µM; EC50 (MCF7; Homo sapiens, MCF7, read-out: Ab EC50 (μM) MCF7): 1.33 µM; Top in. % HS445 (HS445): 78.1%; IC50 (HS445; Hs 445, CellTiterGlo, 72 hrs): 5 to 15 µM; EC50 (HS445; Hs 445, read-out: Ab EC50 (μM) HS445): 4.5 µM; Change relative to control (%) [1]: +0.4%; Top in. % HEL92.1.7 (HEL92.1.7): 96.4%; IC50 (HEL92.1.7; [4]): 0.1 to 5 µM; EC50 (HEL92.1.7; Homo sapiens, HEL 92.1.7, read-out: Ab EC50 (μM) HEL92.1.7): 2.2 µM; Top in. % HepG2 (HepG2): 78.5%; IC50 (HepG2; [5]): 0.1 to 5 µM; EC50 (HepG2; Homo sapiens, HepG2, read-out: Ab EC50 (μM) HepG2): 1.13 µM
5 | Nc1ncnc2c1nc(Cl)n2[C@@H]1O[C@H](COP(=O)(NCC(=O)OCc2ccccc2)NCC(=O)OCc2ccccc2)C(O)C1O (stereo partly shown) [Compound AC, 8-Chloroadenosine 5′-O-bis(benzyloxy-glycin-N-yl) phosphate] | 0.1 to 5 |  |  |  |  |  |  | IC50 (RPMI-8226; [2]): 0.1 to 5 µM; IC50 (MCF7; [3]): 0.1 to 5 µM; IC50 (HS445; Hs 445, CellTiterGlo, 72 hrs): 5 to 15 µM; targeting of leukaemic/cancer stem cells in words [1]: no evidence of a capacity to target cancer stem cells; IC50 (HEL92.1.7; [4]): 0.1 to 5 µM; IC50 (HepG2; [5]): 0.1 to 5 µM
6 | C[C@H](NP(=O)(OC[C@H]1O[C@@H](n2c(Cl)nc3c(N)ncnc32)C(O)C1O)Oc1cccc2ccccc12)C(=O)OCc1ccccc1 (stereo partly drawn) [Compound D, (2S)-Benzyl 2-(((((2R,3S,4R,5R)-5-(6-amino-8-chloro-9H-purin-9-yl)-3,4-dihydroxy-tetrahydrofuran-2-yl)methoxynaphthalene-1-yloxy)phosphoryl)amino)propanoate] | 5 to 15 | 0.1 to 5 | 0.1 to 5 | 5 to 15 | 2.5 | 0.1 to 5 | 0.1 to 5 | Change relative to control (%) [1]: −0.8%
7 | CCCCCOC(=O)[C@H](C)NP(=O)(OC[C@H]1O[C@@H](n2c(Cl)nc3c(N)ncnc32)C(O)C1O)Oc1cccc2ccccc12 (stereo partly drawn) [Compound E, (2S)-Pentyl 2-(((((2R,3S,4R,5R)-5-(6-amino-8-chloro-9H-purin-9-yl)-3,4-dihydroxy-tetrahydrofuran-2-yl)methoxnaphthalene-1-yloxy)phosphoryl)amino)propanoate] | 5 to 15 | 0.1 to 5 | 0.1 to 5 | 15 to 100 | 3.5 | 0.1 to 5 | 0.1 to 5 | 
8 | CC(C)C[C@H](NP(=O)(OC[C@H]1O[C@@H](n2c(Cl)nc3c(N)ncnc32)C(O)C1O)Oc1ccccc1)C(=O)OCc1ccccc1 (stereo partly drawn) [V, 5′-([(Benzyloxy-L-leucin-N-yl)-phenyl]-phosphatyl) 8-chloroadenosine] | 15 to 100 | 0.1 to 5 | 0.1 to 5 | 15 to 100 |  | 0.1 to 5 | 0.1 to 5 | 
